Experiments:
JNK pathway activation [1] = test: Western blotting of phospho-JNK in mock-transfected HEK-293T cells; format: cell-based, human; conditions: 50 or 100 μM, 60 min
Method: (§1) We next set out to assess the functional effects of HNE modification of ZAK in human cells. HEK-293T cells were stably transfected with cDNAs for WT-ZAK, C22A-ZAK, or K45M-ZAK and the activation state of their MAPK signaling pathways was monitored by western blotting with anti-phosphoprotein antibodies. […] We next treated cells with H2O2 (1 mM, 30 min) to induce oxidative stress, a process that is known to activate the JNK pathway^41,42. H2O2 treatment stimulated JNK activity in both WT- and C22A-ZAK-transfected cells (but not K45M-ZAK-transfected cells), with WT-ZAK cells showing the greater level of activation (FIG. 5b,c). […] We interpret these findings to indicate the existence of both ZAK-dependent and ZAK-independent pathways for HNE modulation of JNK activation (FIG. 5d). By modifying C22 on ZAK, HNE blocks the contribution that this kinase makes to the activation of the JNK pathway. […]
(§2) Mouse and rabbit monoclonal antibodies against phospho-ERK 1/2 (Thr202/Tyr204), phosphor-SAPK/JNK (Thr183/[…]), phosphor-p38 MAPK (Thr180/[…]) and total ERK 1/2, SAPK/JNK and p38 MAPK were purchased from Cell Signaling Technology. […] Protein band intensities were quantified by ImageJ8 and ratios of phosphor-MAPK over total MAPK were computed. […]

JNK pathway activation [2] = test: Western blotting of phospho-JNK in C22A-ZAK-transfected HEK-293T cells; format: cell-based, human
Method: as §1, §2

WT-ZAK = biological target: T1, WT-ZAK (Homo sapiens, UniProt Q9NYL2); test: gel-based ABPP with IA-rhodamine probe; format: binding; conditions: 10, 50 and 100 μM, 30 min; HEK-293T lysate
T1 construct: Full-length cDNA encoding human ZAK-13 (BC001401); expressed in transfected cells
Excerpt: The gel signals for IA-labeling of WT-ZAK were blocked by pretreatment with HNE over a concentration range that closely matched the HNE-sensitivity profile observed for C22 in competitive isoTOP-ABPP experiments (FIG. 4b, compare to FIG. 3a). […] Considering further that C22 is predicted to reside adjacent to the ATP-binding loop of ZAK, we postulated that the HNE-induced loss of kinase activity might be due to blockade of ATP-binding.
Full-length cDNA encoding human ZAK-13 (BC001401) in pOTB7 was purchased from Open BioSystems and subcloned into pFLAG-CMV-6c (Sigma-Aldrich). ZAK-C22A and ZAK-K45M mutants were generated by QuikChange site-directed mutagenesis using the primer 5′-[…]-3′ (SEQ ID NO:1) and 5′-[…]-3′ (SEQ ID NO:2) and their complements. Wild-type and mutant ZAK were cloned into a modified pCLNCX retroviral vector. Retrovirus was prepared by taking 3.0 μg of each of pCLNCX and pCL-Ampho vectors and […], of FuGENE IID reagent (Roche) to transfect 60% confluent HEK-293T cells. […]
FLAG-tagged wild-type and C22A mutant ZAK were immunoprecipitated from HEK-293T cells ([…]). […] Gel samples were separated by SDS-PAGE (50 μL of sample/lane) and visualized in-gel using a Hitachi FMBio II flatbed laser-induced fluorescence scanner (MiraiBio, Alameda, Calif.). […]

T1 sequence (Q9NYL2 1-455 isoform Q9NYL2-2): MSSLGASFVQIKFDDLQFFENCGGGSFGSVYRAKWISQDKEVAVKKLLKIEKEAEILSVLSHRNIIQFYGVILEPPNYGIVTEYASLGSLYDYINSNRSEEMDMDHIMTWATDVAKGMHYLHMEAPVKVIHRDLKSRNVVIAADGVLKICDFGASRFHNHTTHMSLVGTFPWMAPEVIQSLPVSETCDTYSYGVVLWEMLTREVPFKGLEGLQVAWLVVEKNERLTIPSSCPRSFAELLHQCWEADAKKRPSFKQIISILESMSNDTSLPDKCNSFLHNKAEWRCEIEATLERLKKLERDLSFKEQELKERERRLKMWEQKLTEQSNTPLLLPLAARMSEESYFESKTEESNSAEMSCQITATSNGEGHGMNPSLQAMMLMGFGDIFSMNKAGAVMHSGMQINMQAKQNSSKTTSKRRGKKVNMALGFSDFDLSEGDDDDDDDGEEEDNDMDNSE

CCCCCC(O)/C=C/C=O (stereo not shown) [4-HNE, 4-Hydroxynonenal]
JNK activation by HNE alone, mock-transfected cells (JNK pathway activation [1]): activated JNK
JNK activation by HNE alone, C22A-ZAK-transfected cells (JNK pathway activation [2]; 50 or 100 μM, 60 min): dramatic concentration-dependent activation of JNK
H2O2-dependent JNK activation, C22A-ZAK cells (JNK pathway activation [2]; pre-treatment 100 μM, 30 min, then H2O2 1 mM, 30 min): hyper-activating JNK activity
gel signals for IA-labeling of WT-ZAK after pretreatment (WT-ZAK): blocked
